Results reported in ChEMBL document CHEMBL1145312, “Structure-activity relationships of triazolopyridine oxazole p38 inhibitors: identification of candidates for clinical development” (Bioorg Med Chem Lett, 2006).
≈ marks a conversion by molar mass, not a printed value.

Legend:
[1] = Solubility in PBS buffer at ph 6.5; type: physicochemical
[2] = system: Monocyte; test: Inhibition of LPS-induced TNFalpha production in human monocytes; type: functional, cell-based
[3] = target: hERG (KCNH2) (Homo sapiens, UniProt Q12809); test: Inhibition of hERG channel current in HEK293 cells at 3 uM; type: toxicity, cell-based; conditions: HEK293 cells that express hERG
[4] = system: Rattus norvegicus; test: Inhibition of LPS-induced TNFalpha release in rat at 3 mg/kg; type: functional
[5] = target: T1, Mitogen-activated protein kinase 12 (Homo sapiens, UniProt P53778); test: Inhibition of p38-gamma
T1 sequence (P53778 whole entry): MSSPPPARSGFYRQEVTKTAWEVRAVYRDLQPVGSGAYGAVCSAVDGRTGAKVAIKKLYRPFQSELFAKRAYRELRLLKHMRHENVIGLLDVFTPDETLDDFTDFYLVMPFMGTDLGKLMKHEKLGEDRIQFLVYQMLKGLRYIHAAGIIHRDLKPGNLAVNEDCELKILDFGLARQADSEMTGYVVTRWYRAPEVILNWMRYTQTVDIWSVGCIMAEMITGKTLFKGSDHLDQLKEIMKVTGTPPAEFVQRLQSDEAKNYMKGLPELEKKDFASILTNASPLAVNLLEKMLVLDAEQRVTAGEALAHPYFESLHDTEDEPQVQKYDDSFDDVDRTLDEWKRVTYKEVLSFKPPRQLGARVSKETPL

[6] = target: Dual specificity mitogen-activated protein kinase kinase 1 (Homo sapiens, UniProt Q02750); test: Inhibition of MKK1
Dual specificity mitogen-activated protein kinase kinase 1, sequence (Q02750 whole entry): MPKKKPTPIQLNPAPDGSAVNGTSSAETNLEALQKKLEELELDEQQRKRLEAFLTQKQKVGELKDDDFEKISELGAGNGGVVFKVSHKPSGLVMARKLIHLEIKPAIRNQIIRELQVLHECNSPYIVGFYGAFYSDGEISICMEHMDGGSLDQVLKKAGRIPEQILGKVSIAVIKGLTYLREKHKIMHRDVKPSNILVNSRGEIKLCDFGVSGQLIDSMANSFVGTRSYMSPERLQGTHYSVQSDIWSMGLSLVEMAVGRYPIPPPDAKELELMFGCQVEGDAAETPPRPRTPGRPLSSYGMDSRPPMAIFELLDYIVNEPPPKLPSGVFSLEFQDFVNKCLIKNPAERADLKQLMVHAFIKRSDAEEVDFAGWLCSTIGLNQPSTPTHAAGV

[7] = target: Mitogen-activated protein kinase 14 (Homo sapiens, UniProt Q16539); test: Inhibition of p38alpha
Mitogen-activated protein kinase 14, sequence (Q16539 whole entry): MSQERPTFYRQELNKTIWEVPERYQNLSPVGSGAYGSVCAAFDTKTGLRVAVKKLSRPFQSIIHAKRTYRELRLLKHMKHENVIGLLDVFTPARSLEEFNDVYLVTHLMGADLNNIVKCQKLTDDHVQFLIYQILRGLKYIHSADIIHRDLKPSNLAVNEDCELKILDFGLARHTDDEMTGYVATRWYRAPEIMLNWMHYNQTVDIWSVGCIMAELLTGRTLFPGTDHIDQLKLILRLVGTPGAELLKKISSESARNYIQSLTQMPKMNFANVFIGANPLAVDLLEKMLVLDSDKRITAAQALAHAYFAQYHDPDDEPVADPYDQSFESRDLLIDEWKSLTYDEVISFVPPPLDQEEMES

[8] = species: Homo sapiens; test: Inhibition of LPS-induced TNFalpha production in human whole blood; type: functional, organism-based
[9] = target: c-Jun N-terminal kinase, JNK (Homo sapiens, UniProt P45983+P53779+P45984); test: Inhibition of JNK; type: protein assay
[10] = target: Ribosomal protein S6 kinase alpha-1 (Homo sapiens, UniProt Q15418); test: Inhibition of MAPKAP-K1a
Ribosomal protein S6 kinase alpha-1, sequence (Q15418 whole entry): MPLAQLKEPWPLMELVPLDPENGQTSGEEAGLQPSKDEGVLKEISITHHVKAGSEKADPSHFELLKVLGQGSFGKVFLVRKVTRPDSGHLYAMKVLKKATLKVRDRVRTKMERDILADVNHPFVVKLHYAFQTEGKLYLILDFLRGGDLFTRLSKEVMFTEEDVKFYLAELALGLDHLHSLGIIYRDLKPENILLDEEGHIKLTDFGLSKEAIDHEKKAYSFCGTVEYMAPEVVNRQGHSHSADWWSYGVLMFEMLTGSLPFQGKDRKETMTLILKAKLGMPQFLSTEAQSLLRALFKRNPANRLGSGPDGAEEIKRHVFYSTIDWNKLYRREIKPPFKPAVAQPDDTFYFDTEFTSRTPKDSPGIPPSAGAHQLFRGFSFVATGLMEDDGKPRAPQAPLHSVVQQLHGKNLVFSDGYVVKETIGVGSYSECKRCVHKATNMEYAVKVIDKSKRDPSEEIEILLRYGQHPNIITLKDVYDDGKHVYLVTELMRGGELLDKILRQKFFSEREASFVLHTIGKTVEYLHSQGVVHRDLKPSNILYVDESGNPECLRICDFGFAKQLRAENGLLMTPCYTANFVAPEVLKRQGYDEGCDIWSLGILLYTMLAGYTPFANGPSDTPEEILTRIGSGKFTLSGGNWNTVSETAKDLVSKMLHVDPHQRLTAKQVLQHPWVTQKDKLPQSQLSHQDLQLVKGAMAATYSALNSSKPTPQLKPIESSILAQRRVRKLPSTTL

[11] = target: MAP kinase-activated protein kinase 2 (Homo sapiens, UniProt P49137); test: Inhibition of MAPKAP-K2
MAP kinase-activated protein kinase 2, sequence (P49137 whole entry): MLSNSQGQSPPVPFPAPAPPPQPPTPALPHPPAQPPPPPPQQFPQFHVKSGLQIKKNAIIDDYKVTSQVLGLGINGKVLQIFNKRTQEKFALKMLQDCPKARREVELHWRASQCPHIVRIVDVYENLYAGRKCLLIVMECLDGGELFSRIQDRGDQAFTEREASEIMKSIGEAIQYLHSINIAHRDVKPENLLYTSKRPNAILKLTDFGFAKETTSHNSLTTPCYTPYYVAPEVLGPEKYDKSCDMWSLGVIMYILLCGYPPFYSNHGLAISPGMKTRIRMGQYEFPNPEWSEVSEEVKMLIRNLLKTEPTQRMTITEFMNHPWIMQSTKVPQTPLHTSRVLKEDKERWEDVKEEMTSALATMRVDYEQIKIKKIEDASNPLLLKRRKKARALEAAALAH

[12] = target: Ribosomal protein S6 kinase alpha-5 (Homo sapiens, UniProt O75582); test: Inhibition of MSK1
[13] = target: T2, MAP kinase-activated protein kinase 5 (Homo sapiens, UniProt Q8IW41); test: Inhibition of PRAK
T2 sequence (Q8IW41 whole entry): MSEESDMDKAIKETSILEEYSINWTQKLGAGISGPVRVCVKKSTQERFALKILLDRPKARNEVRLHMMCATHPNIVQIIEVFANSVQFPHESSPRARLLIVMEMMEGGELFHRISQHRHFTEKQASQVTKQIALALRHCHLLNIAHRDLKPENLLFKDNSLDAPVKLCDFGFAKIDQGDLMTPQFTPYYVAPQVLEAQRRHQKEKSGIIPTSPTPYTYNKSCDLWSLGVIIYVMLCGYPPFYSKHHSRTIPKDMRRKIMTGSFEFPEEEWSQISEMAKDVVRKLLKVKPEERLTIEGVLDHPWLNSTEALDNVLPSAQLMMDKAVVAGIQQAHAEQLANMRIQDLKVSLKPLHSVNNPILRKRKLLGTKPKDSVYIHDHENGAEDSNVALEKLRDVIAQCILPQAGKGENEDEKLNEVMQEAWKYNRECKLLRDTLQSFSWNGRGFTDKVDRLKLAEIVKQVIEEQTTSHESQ

[14] = target: Protein kinase C alpha type (Homo sapiens, UniProt P17252); test: Inhibition of PKCalpha
[15] = Inhibition of PKC
[16] = target: T3, Serine/threonine-protein kinase Sgk1 (Homo sapiens, UniProt O00141); test: Inhibition of SGK
T3 sequence (O00141 whole entry): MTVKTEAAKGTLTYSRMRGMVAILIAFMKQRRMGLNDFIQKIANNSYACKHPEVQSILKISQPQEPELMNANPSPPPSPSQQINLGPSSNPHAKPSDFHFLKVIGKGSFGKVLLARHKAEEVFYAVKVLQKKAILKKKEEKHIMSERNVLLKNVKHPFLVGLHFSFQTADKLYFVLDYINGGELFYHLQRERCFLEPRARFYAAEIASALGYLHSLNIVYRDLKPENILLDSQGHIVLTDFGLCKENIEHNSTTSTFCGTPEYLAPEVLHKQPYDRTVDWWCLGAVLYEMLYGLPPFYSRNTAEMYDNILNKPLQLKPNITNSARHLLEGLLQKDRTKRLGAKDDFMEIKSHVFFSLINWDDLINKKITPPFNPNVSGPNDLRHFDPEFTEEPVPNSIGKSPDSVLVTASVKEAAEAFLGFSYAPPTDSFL

[17] = target: RAC-alpha serine/threonine-protein kinase (Homo sapiens, UniProt P31749); test: Inhibition of PKBalpha
[18] = target: Ribosomal protein S6 kinase (P70S6K) (Homo sapiens, UniProt P23443+Q9UBS0); test: Inhibition of P70S6K; type: protein-complex assay
[19] = target: Glycogen synthase kinase-3 beta (Homo sapiens, UniProt P49841); test: Inhibition of GSK3-beta
[20] = target: Rho-associated protein kinase 2 (Homo sapiens, UniProt O75116); test: Inhibition of ROCK2
Rho-associated protein kinase 2, sequence (O75116 whole entry): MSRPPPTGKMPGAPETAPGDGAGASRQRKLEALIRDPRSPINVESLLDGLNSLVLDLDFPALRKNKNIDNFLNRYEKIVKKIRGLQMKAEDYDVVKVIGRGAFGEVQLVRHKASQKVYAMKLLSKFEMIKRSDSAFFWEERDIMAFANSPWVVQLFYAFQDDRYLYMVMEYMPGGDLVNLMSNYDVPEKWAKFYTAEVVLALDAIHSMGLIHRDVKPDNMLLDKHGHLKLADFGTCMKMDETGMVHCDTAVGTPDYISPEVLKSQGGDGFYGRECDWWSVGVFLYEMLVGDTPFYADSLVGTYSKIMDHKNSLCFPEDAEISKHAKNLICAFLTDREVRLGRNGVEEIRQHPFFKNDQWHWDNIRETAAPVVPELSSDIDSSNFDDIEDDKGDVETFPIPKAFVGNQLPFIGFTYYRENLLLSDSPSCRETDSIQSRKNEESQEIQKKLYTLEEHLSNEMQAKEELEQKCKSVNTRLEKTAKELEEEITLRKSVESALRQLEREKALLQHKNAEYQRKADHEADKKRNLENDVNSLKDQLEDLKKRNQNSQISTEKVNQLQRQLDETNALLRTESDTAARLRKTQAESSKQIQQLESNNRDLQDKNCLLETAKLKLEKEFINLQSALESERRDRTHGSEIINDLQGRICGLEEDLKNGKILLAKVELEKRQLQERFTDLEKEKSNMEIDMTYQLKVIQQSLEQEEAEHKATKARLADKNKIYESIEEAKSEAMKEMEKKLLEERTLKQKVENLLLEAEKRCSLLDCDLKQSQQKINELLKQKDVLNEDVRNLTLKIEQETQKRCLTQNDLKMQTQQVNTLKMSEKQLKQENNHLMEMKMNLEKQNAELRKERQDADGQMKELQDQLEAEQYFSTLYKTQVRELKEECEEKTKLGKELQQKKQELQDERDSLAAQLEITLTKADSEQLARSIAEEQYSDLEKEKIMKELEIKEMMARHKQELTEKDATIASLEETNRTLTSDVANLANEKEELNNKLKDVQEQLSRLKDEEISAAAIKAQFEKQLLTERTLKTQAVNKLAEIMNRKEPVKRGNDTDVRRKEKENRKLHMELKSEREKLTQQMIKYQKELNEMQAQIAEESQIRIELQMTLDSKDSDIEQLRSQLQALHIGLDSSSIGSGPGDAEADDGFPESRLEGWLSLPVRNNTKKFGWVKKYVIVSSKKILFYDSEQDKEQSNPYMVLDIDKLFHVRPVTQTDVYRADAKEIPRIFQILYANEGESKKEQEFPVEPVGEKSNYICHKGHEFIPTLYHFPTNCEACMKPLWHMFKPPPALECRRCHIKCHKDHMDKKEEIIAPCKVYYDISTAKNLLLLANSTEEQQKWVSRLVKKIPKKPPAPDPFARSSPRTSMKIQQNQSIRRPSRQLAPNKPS

[21] = target: AMP-activated protein kinase, AMPK; test: Inhibition of AMPK; type: protein-complex assay
[22] = target: T4, Serine/threonine-protein kinase Chk1 (Homo sapiens, UniProt O14757); test: Inhibition of CHK1
T4 sequence (O14757 whole entry): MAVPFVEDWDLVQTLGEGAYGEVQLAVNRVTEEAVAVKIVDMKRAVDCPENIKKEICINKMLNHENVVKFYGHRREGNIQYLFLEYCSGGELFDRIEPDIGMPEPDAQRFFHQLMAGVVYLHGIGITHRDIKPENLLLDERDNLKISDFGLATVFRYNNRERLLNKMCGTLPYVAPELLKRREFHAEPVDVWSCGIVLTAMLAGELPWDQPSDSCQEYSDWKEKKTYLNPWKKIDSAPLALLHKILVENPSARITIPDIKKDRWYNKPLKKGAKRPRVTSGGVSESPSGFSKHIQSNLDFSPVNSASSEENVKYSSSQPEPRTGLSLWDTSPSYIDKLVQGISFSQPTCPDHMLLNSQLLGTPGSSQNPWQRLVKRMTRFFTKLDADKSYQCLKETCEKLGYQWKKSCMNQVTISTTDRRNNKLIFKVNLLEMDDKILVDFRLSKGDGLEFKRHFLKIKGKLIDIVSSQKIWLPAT

[23] = target: Casein kinase II (Homo sapiens, UniProt P19784+P67870+P68400); test: Inhibition of CK2; type: protein-complex assay
[24] = target: Tyrosine-protein kinase Lck (Homo sapiens, UniProt P06239); test: Inhibition of Lck
[25] = target: Tyrosine-protein kinase CSK (Homo sapiens, UniProt P41240); test: Inhibition of CSK
Tyrosine-protein kinase CSK, sequence (P41240 whole entry): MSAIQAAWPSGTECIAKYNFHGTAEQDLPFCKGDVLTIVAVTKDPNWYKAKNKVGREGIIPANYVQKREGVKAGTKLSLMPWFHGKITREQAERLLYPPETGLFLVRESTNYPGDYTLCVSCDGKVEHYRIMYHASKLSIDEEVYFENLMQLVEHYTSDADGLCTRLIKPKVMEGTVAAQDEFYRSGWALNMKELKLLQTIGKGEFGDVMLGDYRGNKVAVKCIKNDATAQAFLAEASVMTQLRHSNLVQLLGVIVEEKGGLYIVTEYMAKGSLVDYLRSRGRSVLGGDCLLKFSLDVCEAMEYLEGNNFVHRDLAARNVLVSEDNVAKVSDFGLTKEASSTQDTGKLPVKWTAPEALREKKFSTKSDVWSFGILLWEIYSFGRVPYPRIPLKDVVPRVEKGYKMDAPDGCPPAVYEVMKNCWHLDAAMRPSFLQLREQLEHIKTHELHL

[26] = target: Cyclin-dependent kinase 2 (Homo sapiens, UniProt P24941); test: Inhibition of CDK2
[27] = Inhibition of PI3K
[28] = target: Dual specificity tyrosine-phosphorylation-regulated kinase 1A (Homo sapiens, UniProt Q13627); test: Inhibition of DYRK1a
[29] = Inhibition of phosphorylase kinase
[30] = target: Mitogen-activated protein kinase 1 (Homo sapiens, UniProt P28482); test: Inhibition of ERK2
Mitogen-activated protein kinase 1, sequence (P28482 whole entry): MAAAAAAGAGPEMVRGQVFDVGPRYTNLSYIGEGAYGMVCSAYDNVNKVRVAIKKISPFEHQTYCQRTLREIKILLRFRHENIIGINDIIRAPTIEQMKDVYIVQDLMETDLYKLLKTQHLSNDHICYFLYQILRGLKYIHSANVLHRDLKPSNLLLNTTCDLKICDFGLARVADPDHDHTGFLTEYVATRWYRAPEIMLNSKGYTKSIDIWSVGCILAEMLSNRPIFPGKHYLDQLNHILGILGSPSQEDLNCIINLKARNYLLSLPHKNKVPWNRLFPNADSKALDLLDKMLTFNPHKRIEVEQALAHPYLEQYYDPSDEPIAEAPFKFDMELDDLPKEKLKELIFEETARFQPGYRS

[31] = Volume of distribution in rat; type: ADME, organism-based; conditions: in vivo, read-out: Vdss
[32] = Half life in rat; type: ADME, organism-based; conditions: in vivo
[33] = Bioavailability in rat; type: ADME, organism-based; conditions: in vivo
[34] = Plasma clearance in monkey; type: ADME, organism-based, Macaca mulatta; conditions: rhesus monkey
[35] = Volume of distribution in monkey; type: ADME, organism-based, Macaca mulatta; conditions: rhesus monkey, in vivo; read-out: Vdss
[36] = Half life in monkey; type: ADME, organism-based, Macaca mulatta; conditions: rhesus monkey, in vivo
[37] = Bioavailability in monkey; type: ADME, organism-based, Macaca mulatta; conditions: rhesus monkey, in vivo
[38] = Distribution coefficient, log D of the compound; type: physicochemical; conditions: octanol/water
[39] = Plasma clearance in rat; type: ADME, organism-based
[40] = Dissociation constant, pKa of the compound; type: physicochemical
[41] = target: T5, 3-phosphoinositide-dependent protein kinase 1 (Homo sapiens, UniProt O15530); test: Inhibition of PDK1
T5 sequence (O15530 whole entry): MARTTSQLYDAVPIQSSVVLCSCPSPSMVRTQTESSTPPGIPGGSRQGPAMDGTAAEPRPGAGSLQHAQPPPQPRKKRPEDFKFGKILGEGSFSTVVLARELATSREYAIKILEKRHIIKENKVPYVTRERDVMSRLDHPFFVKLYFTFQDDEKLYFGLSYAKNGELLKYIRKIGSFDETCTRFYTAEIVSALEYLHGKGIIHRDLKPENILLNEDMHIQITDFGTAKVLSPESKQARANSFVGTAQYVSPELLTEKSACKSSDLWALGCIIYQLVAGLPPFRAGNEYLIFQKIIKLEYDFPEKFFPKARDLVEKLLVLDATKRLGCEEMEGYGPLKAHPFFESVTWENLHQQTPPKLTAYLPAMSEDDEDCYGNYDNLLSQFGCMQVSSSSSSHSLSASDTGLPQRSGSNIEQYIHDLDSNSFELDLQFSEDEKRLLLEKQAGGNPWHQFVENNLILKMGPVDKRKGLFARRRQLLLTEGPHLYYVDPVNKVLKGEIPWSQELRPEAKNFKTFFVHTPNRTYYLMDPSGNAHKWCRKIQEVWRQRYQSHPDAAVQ

Row | Compound | solubility [1] [µg/mL] | IC50 [2] [µM] | IC50 [6] [µM] | IC50 [7] [µM] | IC50 [8] [µM] | IC50 [9] [µM] | IC50 [10] [µM] | IC50 [11] [µM] | IC50 [12] [µM] | IC50 [13] [µM] | IC50 [14] [µM] | IC50 [15] [µM] | IC50 [16] [µM] | IC50 [17] [µM] | IC50 [18] [µM] | IC50 [19] [µM] | IC50 [20] [µM] | IC50 [21] [µM] | IC50 [22] [µM] | IC50 [23] [µM] | further results
1 | CC(C)c1nnc2ccc(-c3ocnc3-c3ccc(F)cc3Cl)cn12 | 81 (≈ 227 µM) | 0.0245 | > 10 | 0.0025 | 0.38 | > 10 | > 10 | > 10 | > 10 | > 10 | > 10 | > 10 | > 10 | > 10 | > 10 | > 10 | > 10 | > 10 | > 10 | > 10 | inhibition at 3 µM [3]: 0%; inhibition in vivo at 3 mg/kg [4]: 94%; IC50 [5]: > 10 µM; IC50 [24]: > 10 µM; IC50 [25]: > 10 µM; IC50 [26]: > 10 µM; IC50 [27]: > 10 µM; IC50 [28]: > 10 µM; IC50 [29]: > 10 µM; IC50 [30]: > 10 µM
2 | CC(C)c1nnc2ccc(-c3ocnc3-c3ccc(F)cc3)cn12 | 29.6 (≈ 91.8 µM) | – | – | – | – | – | – | – | – | – | – | – | – | – | – | – | – | – | – | – | Vd [31]: 0.8 L/kg; half-life [32]: 0.7 h; bioavailability [33]: 85%; clearance [34]: 16 mL/min/kg; Vd [35]: 1.8 L/kg; half-life [36]: 1.3 h; bioavailability [37]: 75%; logD [38]: 2.18; clearance [39]: 12 mL/min/kg; pKa [40]: 2.86
3 | CC(C)c1nnc2ccc(-c3ocnc3-c3cc(F)c(F)cc3F)cn12 | – | 0.0197 | > 10 | 0.0032 | 0.263 | > 10 | > 10 | > 10 | > 10 | > 10 | > 10 | > 10 | > 10 | > 10 | > 10 | > 10 | > 10 | > 10 | > 10 | > 10 | IC50 [41]: > 10 µM; IC50 [25]: > 10 µM; IC50 [26]: > 10 µM; IC50 [27]: > 10 µM; IC50 [28]: > 10 µM; IC50 [29]: > 10 µM; IC50 [30]: > 10 µM
